Experimental data taken from patent publication US11135234B2, “Effective aminoglycoside antibiotic for multidrug-resistant bacteria” (MICROBIAL CHEMISTRY RESEARCH FOUNDATION, priority 2015, dated 2021).
Values after ≈ are worked out from the molar mass of the structure shown.

Key:
[1] = test system: S. aureus RN4220; experiment: MIC, agar plate dilution method, S. aureus RN4220; format: cell-based, Staphylococcus aureus; settings: for minimal inhibitory concentration (MIC): S. aureus RN4220, Sensitive bacterium
Procedure: (§1) As for the representative compounds of a new aminoglycoside antibiotic of the present invention described in Examples, the minimal inhibitory concentration (MIC, μg/mL) was measured for various assay strains of bacteria using an agar plate dilution method in accordance with the method described in the Japan Society of Chemotherapy.

[2] = test system: S. aureus RN4220/pMS520; experiment: MIC, agar plate dilution method, S. aureus RN4220/pMS520; format: cell-based, Staphylococcus aureus; settings: for minimal inhibitory concentration (MIC): S. aureus RN4220/pMS520, MRSA
Procedure: as §1

[3] = test system: S. aureus MF490; experiment: MIC, agar plate dilution method, S. aureus MF490; format: cell-based, Staphylococcus aureus; settings: for minimal inhibitory concentration (MIC): S. aureus MF490, MRSA
Procedure: as §1

[4] = test system: E. faecium ATCC19434; experiment: MIC, agar plate dilution method, E. faecium ATCC19434; format: cell-based, Enterococcus faecium; settings: for minimal inhibitory concentration (MIC): E. faecium ATCC19434
Procedure: as §1

[5] = test system: E. coli JM109/pMW218; experiment: MIC, agar plate dilution method, E. coli JM109/pMW218; format: cell-based, Escherichia coli; settings: for minimal inhibitory concentration (MIC): E. coli JM109/pMW218, Sensitive bacterium
Procedure: as §1

[6] = test system: K. pneumoniae ATCC BAA-1705; experiment: MIC, agar plate dilution method, K. pneumoniae ATCC BAA-1705; format: cell-based, Klebsiella pneumoniae; settings: for minimal inhibitory concentration (MIC): K. pneumoniae ATCC BAA-1705, KPC-producing strain
Procedure: as §1

[7] = test system: K. pneumoniae ATCC BAA-2146; experiment: MIC, agar plate dilution method, K. pneumoniae ATCC BAA-2146; format: cell-based, Klebsiella pneumoniae; settings: for minimal inhibitory concentration (MIC): K. pneumoniae ATCC BAA-2146, NDM-producing strain
Procedure: as §1

[8] = test system: A. baumannii ATCC BAA-1710; experiment: MIC, agar plate dilution method, A. baumannii ATCC BAA-1710; format: cell-based, Acinetobacter baumannii; settings: for minimal inhibitory concentration (MIC): A. baumannii ATCC BAA-1710, MDRA
Procedure: as §1

[9] = test system: S. marcescens TH-0447; experiment: MIC, agar plate dilution method, S. marcescens TH-0447; format: cell-based, Serratia marcescens; settings: for minimal inhibitory concentration (MIC): S. marcescens TH-0447, AMK-resistant
Procedure: as §1

[10] = test system: S. marcescens GN6944; experiment: MIC, agar plate dilution method, S. marcescens GN6944; format: cell-based, Serratia marcescens; settings: S. marcescens GN6944, GM-resistant
Procedure: as §1

[11] = test system: P. aeruginosa PAO1; experiment: MIC, agar plate dilution method, P. aeruginosa PAO1; format: cell-based, Pseudomonas aeruginosa; settings: for minimal inhibitory concentration (MIC): P. aeruginosa PAO1, Sensitive bacterium
Procedure: as §1

[12] = test system: P. aeruginosa PAO1/GN315; experiment: MIC, agar plate dilution method, P. aeruginosa PAO1/GN315; format: cell-based, Pseudomonas aeruginosa; settings: for minimal inhibitory concentration (MIC): P. aeruginosa PAO1/GN315, AMK-resistant
Procedure: as §1

[13] = test system: P. aeruginosa MSC17707; experiment: MIC, agar plate dilution method, P. aeruginosa MSC17707; format: cell-based, Pseudomonas aeruginosa; settings: for minimal inhibitory concentration (MIC): P. aeruginosa MSC17707, AMK-resistant
Procedure: as §1

[14] = test system: P. aeruginosa MSC01035; experiment: MIC, agar plate dilution method, P. aeruginosa MSC01035; format: cell-based, Pseudomonas aeruginosa; settings: P. aeruginosa MSC01035, ABK-resistant
Procedure: as §1

Compound: 4″-N-(trans-1,4-4-aminocyclohexyl)apramycin [Compound A4-g]
- minimal inhibitory concentration (MIC) [1]: 4 µg/mL
- minimal inhibitory concentration (MIC) [2]: 4 µg/mL
- minimal inhibitory concentration (MIC) [3]: 16 µg/mL
- minimal inhibitory concentration (MIC) [4]: 32 µg/mL
- minimal inhibitory concentration (MIC) [5]: 2 µg/mL
- minimal inhibitory concentration (MIC) [6]: 2 µg/mL
- minimal inhibitory concentration (MIC) [7]: 2 µg/mL
- minimal inhibitory concentration (MIC) [8]: 32 µg/mL
- minimal inhibitory concentration (MIC) [9]: 16 µg/mL
- minimal inhibitory concentration (MIC) [10]: 16 µg/mL
- minimal inhibitory concentration (MIC) [11]: 16 µg/mL
- minimal inhibitory concentration (MIC) [12]: 16 µg/mL
- minimal inhibitory concentration (MIC) [13]: 32 µg/mL
- minimal inhibitory concentration (MIC) [14]: 32 µg/mL

Compound: CN[C@@H]1[C@@H](O[C@H]2O[C@H](CO)[C@@H](N)[C@H](O)[C@H]2O)O[C@H]2C[C@@H](N)[C@@H](O[C@@H]3[C@@H](N)C[C@@H](N)C[C@@H]3O)O[C@@H]2[C@@H]1O [Compound C6, 6-deoxy-5-epiapramycin]
- minimal inhibitory concentration (MIC) [1]: 4 µg/mL (≈ 7.64 µM)
- minimal inhibitory concentration (MIC) [2]: 4 µg/mL (≈ 7.64 µM)
- minimal inhibitory concentration (MIC) [3]: 8 µg/mL (≈ 15.3 µM)
- minimal inhibitory concentration (MIC) [4]: 16 µg/mL (≈ 30.6 µM)
- minimal inhibitory concentration (MIC) [5]: 1 µg/mL (≈ 1.91 µM)
- minimal inhibitory concentration (MIC) [6]: 2 µg/mL (≈ 3.82 µM)
- minimal inhibitory concentration (MIC) [7]: 1 µg/mL (≈ 1.91 µM)
- minimal inhibitory concentration (MIC) [8]: 8 µg/mL (≈ 15.3 µM)
- minimal inhibitory concentration (MIC) [9]: 8 µg/mL (≈ 15.3 µM)
- minimal inhibitory concentration (MIC) [10]: 4 µg/mL (≈ 7.64 µM)
- minimal inhibitory concentration (MIC) [11]: 4 µg/mL (≈ 7.64 µM)
- minimal inhibitory concentration (MIC) [12]: 4 µg/mL (≈ 7.64 µM)
- minimal inhibitory concentration (MIC) [13]: 8 µg/mL (≈ 15.3 µM)
- minimal inhibitory concentration (MIC) [14]: 8 µg/mL (≈ 15.3 µM)

Compound: CNC1C(O[C@H]2OC(CO)[C@@H](NC(=N)N)CC2O)O[C@H]2CC(N)[C@@H](O[C@@H]3C(N)C[C@@H](N)C(O)[C@H]3F)OC2C1O (stereo partly drawn) [Compound X4-b, 4″-deamino-5,3″-dideoxy-5-epi-5-fluoro-4″-guanidinoapramycin]
- MIC ([1]; Staphylococcus aureus, RN4220, S. aureus RN4220, Sensitive bacterium, read-out: minimal inhibitory concentration (MIC)): 1 µg/mL (≈ 1.76 µM)
- MIC ([2]; Staphylococcus aureus, MRSA, read-out: minimal inhibitory concentration (MIC), S. aureus RN4220/pMS520, MRSA): 1 µg/mL (≈ 1.76 µM)
- MIC ([3]; Staphylococcus aureus, MRSA, read-out: minimal inhibitory concentration (MIC)): 4 µg/mL (≈ 7.05 µM)
- MIC ([4]; Enterococcus faecium, ATCC19434, E. faecium ATCC19434, read-out: minimal inhibitory concentration (MIC)): 8 µg/mL (≈ 14.1 µM)
- MIC ([5]; Escherichia coli, JM109/PMW218, E. coli JM109/pMW218, Sensitive bacterium, read-out: minimal inhibitory concentration (MIC)): 1 µg/mL (≈ 1.76 µM)
- MIC ([6]; Klebsiella pneumoniae, ATCCBAA1705, K. pneumoniae ATCC BAA-1705, KPC-producing strain, read-out: minimal inhibitory concentration (MIC)): 1 µg/mL (≈ 1.76 µM)
- MIC ([7]; Klebsiella pneumoniae, ATCCBAA2146, K. pneumoniae ATCC BAA-2146, NDM-producing strain, read-out: minimal inhibitory concentration (MIC)): 1 µg/mL (≈ 1.76 µM)
- MIC ([8]; Acinetobacter baumannii, ATCCBAA1710, A. baumannii ATCC BAA-1710, MDRA, read-out: minimal inhibitory concentration (MIC)): 16 µg/mL (≈ 28.2 µM)
- MIC ([9]; Serratia marcescens, TH0447, S. marcescens TH-0447, AMK-resistant, read-out: minimal inhibitory concentration (MIC)): 4 µg/mL (≈ 7.05 µM)
- MIC ([10]; Serratia marcescens, read-out: minimal inhibitory concentration (MIC)): 4 µg/mL (≈ 7.05 µM)
- MIC ([11]; Pseudomonas aeruginosa, PAO1, P. aeruginosa PAO1, Sensitive bacterium, read-out: minimal inhibitory concentration (MIC)): 4 µg/mL (≈ 7.05 µM)
- MIC ([12]; Pseudomonas aeruginosa, read-out: minimal inhibitory concentration (MIC), P. aeruginosa PAO1/GN315, AMK-resistant): 8 µg/mL (≈ 14.1 µM)
- MIC ([13]; Pseudomonas aeruginosa, MSC17707, P. aeruginosa MSC17707, AMK-resistant, read-out: minimal inhibitory concentration (MIC)): 8 µg/mL (≈ 14.1 µM)
- MIC ([14]; Pseudomonas aeruginosa, read-out: minimal inhibitory concentration (MIC)): 16 µg/mL (≈ 28.2 µM)

Compound: CNC1C(OC2OC(CO)C(N)CC2O)OC2CC(N)C(OC3C(N)CC(N)C(O)C3F)OC2C1O (stereo not drawn) [Compound M10, 5,3″-dideoxy-5-epi-5-fluoroapramycin]
- minimal inhibitory concentration (MIC) [1]: 2 µg/mL (≈ 3.81 µM)
- minimal inhibitory concentration (MIC) [2]: 2 µg/mL (≈ 3.81 µM)
- minimal inhibitory concentration (MIC) [3]: 8 µg/mL (≈ 15.2 µM)
- minimal inhibitory concentration (MIC) [4]: 8 µg/mL (≈ 15.2 µM)
- minimal inhibitory concentration (MIC) [5]: 0.5 µg/mL (≈ 0.951 µM)
- minimal inhibitory concentration (MIC) [6]: 1 µg/mL (≈ 1.9 µM)
- minimal inhibitory concentration (MIC) [7]: 1 µg/mL (≈ 1.9 µM)
- minimal inhibitory concentration (MIC) [8]: 8 µg/mL (≈ 15.2 µM)
- minimal inhibitory concentration (MIC) [9]: 8 µg/mL (≈ 15.2 µM)
- minimal inhibitory concentration (MIC) [10]: 4 µg/mL (≈ 7.61 µM)
- minimal inhibitory concentration (MIC) [11]: 4 µg/mL (≈ 7.61 µM)
- minimal inhibitory concentration (MIC) [12]: 4 µg/mL (≈ 7.61 µM)
- minimal inhibitory concentration (MIC) [13]: 4 µg/mL (≈ 7.61 µM)
- minimal inhibitory concentration (MIC) [14]: 4 µg/mL (≈ 7.61 µM)

Compound: gentamicin [GM, reference compound]
- minimal inhibitory concentration (MIC) [1]: 0.5 µg/mL
- minimal inhibitory concentration (MIC) [2]: 0.5 µg/mL
- minimal inhibitory concentration (MIC) [3]: >64 µg/mL
- minimal inhibitory concentration (MIC) [4]: 8 µg/mL
- minimal inhibitory concentration (MIC) [5]: 0.25 µg/mL
- minimal inhibitory concentration (MIC) [6]: 2 µg/mL
- minimal inhibitory concentration (MIC) [7]: >64 µg/mL
- minimal inhibitory concentration (MIC) [8]: >64 µg/mL
- minimal inhibitory concentration (MIC) [9]: 32 µg/mL
- minimal inhibitory concentration (MIC) [10]: 64 µg/mL
- minimal inhibitory concentration (MIC) [11]: 2 µg/mL
- minimal inhibitory concentration (MIC) [12]: 8 µg/mL
- minimal inhibitory concentration (MIC) [13]: 8 µg/mL
- minimal inhibitory concentration (MIC) [14]: >64 µg/mL
